Measurements reported in PubChem BioAssay AID192 (DTP/NCI, 2004).
“And” between values parts separate entries of the source, which are not always exact repeats. Equal entries are not always repeated. Toxic doses and inconclusive results are not listed. Rule for the calls: active = survival T/C of 150% or more; inactive = T/C below 125% in these data. Square brackets hold non-standard residues; d marks the D form. Peptide text beside a SMILES is read from it. ξ: configuration not given here. ξNle = CCCCC(N)C(=O)O

System: BDF1 mice, B16 melanoma ip, median survival T/C
Experiment: NCI In Vivo Anticancer Drug Screen. Data for tumor model B16 Melanoma (intraperitoneal) in B6D2F1 (BDF1) mice
Conditions: endpoint: median survival time, higher = longer survival
Outline: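 Vehicle-treated animals serve as the reference (C); treated animals (T) are scored for survival or tumor size after tumor transplantation.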

[1] = dose: 25.0 mg/kg/injection, schedule: Q01DX009 (ip), vehicle: saline
[2] = dose: 50.0 mg/kg/injection, schedule: Q01DX009 (ip), vehicle: saline
[3] = dose: 6.25 mg/kg/injection, schedule: Q01DX009 (ip), vehicle: saline with Tween-80
[4] = dose: 12.5 mg/kg/injection, schedule: Q01DX009 (ip), vehicle: saline with Tween-80
[5] = dose: 100.0 mg/kg/injection, schedule: Q01DX009 (ip), vehicle: saline with Tween-80
[6] = dose: 200.0 mg/kg/injection, schedule: Q01DX009 (ip), vehicle: saline with Tween-80
[7] = dose: 400.0 mg/kg/injection, schedule: Q01DX009 (ip), vehicle: saline with Tween-80
[8] = dose: 25.0 mg/kg/injection, schedule: Q01DX009 (ip), vehicle: saline with Tween-80
[9] = dose: 12.5 mg/kg/injection, schedule: Q01DX009 (ip), vehicle: saline
[10] = dose: 100.0 mg/kg/injection, schedule: Q01DX009 (ip), vehicle: saline
[11] = dose: 25.0 mg/kg/injection, schedule: Q04DX003 (ip), vehicle: Klucel (hydroxypropylcellulose) (HPC)
[12] = dose: 50.0 mg/kg/injection, schedule: Q04DX003 (ip), vehicle: Klucel (hydroxypropylcellulose) (HPC)
[13] = dose: 100.0 mg/kg/injection, schedule: Q04DX003 (ip), vehicle: Klucel (hydroxypropylcellulose) (HPC)
[14] = dose: 200.0 mg/kg/injection, schedule: Q04DX003 (ip), vehicle: Klucel (hydroxypropylcellulose) (HPC)
[15] = dose: 50.0 mg/kg/injection, schedule: Q01DX009 (ip), vehicle: saline with Tween-80
[16] = dose: 12.5 mg/kg/injection, schedule: Q01DX009 (ip), vehicle: Klucel (hydroxypropylcellulose) (HPC)
[17] = dose: 25.0 mg/kg/injection, schedule: Q01DX009 (ip), vehicle: Klucel (hydroxypropylcellulose) (HPC)
[18] = dose: 50.0 mg/kg/injection, schedule: Q01DX009 (ip), vehicle: Klucel (hydroxypropylcellulose) (HPC)
[19] = dose: 100.0 mg/kg/injection, schedule: Q01DX009 (ip), vehicle: Klucel (hydroxypropylcellulose) (HPC)
[20] = dose: 200.0 mg/kg/injection, schedule: Q01DX009 (ip), vehicle: Klucel (hydroxypropylcellulose) (HPC)
[21] = dose: 200.0 mg/kg/injection, schedule: Q01DX009 (ip), vehicle: saline
[22] = dose: 25.0 mg/kg/injection, schedule: Q01DX009 (ip), vehicle: water
[23] = dose: 50.0 mg/kg/injection, schedule: Q01DX009 (ip), vehicle: water
[24] = dose: 100.0 mg/kg/injection, schedule: Q01DX009 (ip), vehicle: water
[25] = dose: 400.0 mg/kg/injection, schedule: Q01DX009 (ip), vehicle: Klucel (hydroxypropylcellulose) (HPC)
[26] = dose: 400.0 mg/kg/injection, schedule: Q04DX003 (ip), vehicle: Klucel (hydroxypropylcellulose) (HPC)

Measured: T/C

CC1(C)N=C(N)N=C(N)N1c1ccc(OCCCNC(=O)Nc2cccc(S(=O)(=O)F)c2)c(Cl)c1
inactive: [1] 102 % of control | [2] 124 % of control

Cc1cc(NCCCCCCCNc2cc(C)nc3cc(N)ccc23)c2ccc(N)cc2n1
inactive: dose: 0.78 mg/kg/injection, schedule: Q01DX009 (ip), vehicle: saline with Tween-80 99 % of control | dose: 1.56 mg/kg/injection, schedule: Q01DX009 (ip), vehicle: saline with Tween-80 100 % of control | dose: 3.12 mg/kg/injection, schedule: Q01DX009 (ip), vehicle: saline with Tween-80 113 % of control | [3] 103 % of control | [4] 100 % of control

Cc1cc2cc3c(C)cc(=O)oc3c(C)c2o1
inactive: [5] 119 % of control | [6] 117 % of control | [7] 100 % of control

O=C1c2cc(Br)cc(Br)c2NCCCC1(Br)Br
inactive: dose: 75.0 mg/kg/injection, schedule: Q04DX003 (ip), vehicle: Klucel (hydroxypropylcellulose) (HPC) 102 % of control | dose: 150.0 mg/kg/injection, schedule: Q04DX003 (ip), vehicle: Klucel (hydroxypropylcellulose) (HPC) 95 % of control | dose: 300.0 mg/kg/injection, schedule: Q04DX003 (ip), vehicle: Klucel (hydroxypropylcellulose) (HPC) 96 % of control

O=CCC(O)C(O)C(O)CO (stereo not drawn)
inactive: dose: 300.0 mg/kg/injection, schedule: Q01DX009 (ip), vehicle: suspension in saline 104 % of control | dose: 600.0 mg/kg/injection, schedule: Q01DX009 (ip), vehicle: suspension in saline 100 % of control | dose: 1200.0 mg/kg/injection, schedule: Q01DX009 (ip), vehicle: suspension in saline 100 % of control | dose: 1800.0 mg/kg/injection, schedule: Q01DX009 (ip), vehicle: suspension in saline 101 % of control

CC1=CC2=C(C=O)C(=O)[C@](C)(O)[C@@H](O)C2=CO1
inactive: [3] 119 % of control | [4] 108 % of control | [8] 122 % of control

CCCC(=O)O
inactive: [9] 106 % of control | [1] 101 % of control | [2] 92 % of control | [10] 106 % of control

CCN(CC)N=Nc1ccccc1-c1nc(N)c2ccccc2n1
inactive: [11] 94 % of control | [12] 109 % of control | [13] 96 % of control | [14] 103 % of control

CCCCC(NC(=O)CNC(=O)CN)C(=O)O (stereo not drawn) (H-Gly-Gly-[ξNle]-OH)
inactive: [15] 97 % of control | [5] 103 % of control | [6] 92 % of control | [7] 93 % of control

O=c1oc(-c2ccc(Cl)cc2)nc2cc(Cl)ccc12
inactive: dose: 6.25 mg/kg/injection, schedule: Q01DX009 (ip), vehicle: Klucel (hydroxypropylcellulose) (HPC) 99 % of control | [16] 93 % of control | [17] 105 % of control and 106 % of control

FC(F)(F)c1nc2nc(Cl)c(Cl)nc2[nH]1
inactive: [4] 116 % of control | [8] 114 % of control | [15] 98 % of control

CC(=O)CCN1C(=O)c2ccccc2C1=O
inactive: [16] 96 % of control | [17] 103 % of control | [18] 95 % of control (2×) and 101 % of control | [19] 99 % of control and 102 % of control | [20] 94 % of control and 98 % of control and 112 % of control

N#CCCc1ccc(O)cc1
inactive: dose: 50.0 mg/kg/injection, schedule: Q01DX009 (ip), vehicle: gum acacia 100 % of control | dose: 50.0 mg/kg/injection, schedule: Q04DX003 (ip), vehicle: gum acacia 100 % of control | dose: 100.0 mg/kg/injection, schedule: Q01DX009 (ip), vehicle: gum acacia 89 % of control | dose: 100.0 mg/kg/injection, schedule: Q04DX003 (ip), vehicle: gum acacia 106 % of control | dose: 200.0 mg/kg/injection, schedule: Q01DX009 (ip), vehicle: gum acacia 91 % of control | dose: 200.0 mg/kg/injection, schedule: Q04DX003 (ip), vehicle: gum acacia 95 % of control

O=C(O)CSC(CC(=O)O)C(=O)O (stereo not drawn)
inactive: [21] 106 % of control | dose: 400.0 mg/kg/injection, schedule: Q01DX009 (ip), vehicle: saline 106 % of control

COC1C=CC23c4cc5c(cc4C(O)OC2CN(C)C3C1)OCO5 (stereo not drawn)
inactive: dose: 6.25 mg/kg/injection, schedule: Q01DX009 (ip), vehicle: saline 101 % of control and 109 % of control | [9] 98 % of control and 108 % of control | [1] 112 % of control and 116 % of control | [2] 112 % of control

Cc1ccc(C(=O)CCC(=O)O)c(C)c1
inactive: [5] 90 % of control | [6] 93 % of control

OCC#CCOCC(O)CCl (stereo not drawn)
inactive: [22] 102 % of control | [23] 98 % of control | [24] 92 % of control

CCCCC(CCCC)c1ccccn1
inactive: [3] 104 % of control | [4] 108 % of control | [8] 102 % of control

CCOC(=O)C(OCC)P(=O)(OCC)OCC (stereo not drawn)
inactive: [17] 95 % of control | [18] 95 % of control | [19] 107 % of control | [20] 102 % of control | [25] 100 % of control

CN1C(=O)C=CC1=O
inactive: dose: 0.5 mg/kg/injection, schedule: Q02DX009 (ip), vehicle: saline 109 % of control | dose: 1.0 mg/kg/injection, schedule: Q02DX009 (ip), vehicle: saline 99 % of control | dose: 2.0 mg/kg/injection, schedule: Q02DX009 (ip), vehicle: saline 98 % of control | dose: 4.0 mg/kg/injection, schedule: Q02DX009 (ip), vehicle: saline 90 % of control

O=C(CCCc1ccc(N(CCCl)CCCl)cc1)Nc1ncccn1
inactive: dose: 3.0 mg/kg/injection, schedule: Q01DX009 (ip), vehicle: Klucel (hydroxypropylcellulose) (HPC) 104 % of control | dose: 6.0 mg/kg/injection, schedule: Q01DX009 (ip), vehicle: Klucel (hydroxypropylcellulose) (HPC) 109 % of control | dose: 12.0 mg/kg/injection, schedule: Q01DX009 (ip), vehicle: Klucel (hydroxypropylcellulose) (HPC) 109 % of control

CN(C)C(=S)S
inactive: [17] 118 % of control | [11] 100 % of control | [18] 103 % of control | [15] 89 % of control | [12] 105 % of control | [19] 91 % of control | [5] 105 % of control | [13] 94 % of control | [20] 116 % of control | [6] 98 % of control | [14] 94 % of control | [25] 98 % of control | [7] 89 % of control | [26] 97 % of control

CSCCC(C)C
inactive: [8] 95 % of control | [15] 89 % of control | dose: 50.0 mg/kg/injection, schedule: Q04DX003 (ip), vehicle: saline with Tween-80 110 % of control | [5] 95 % of control | dose: 100.0 mg/kg/injection, schedule: Q04DX003 (ip), vehicle: saline with Tween-80 97 % of control

Nc1nc(O)c(CC(=O)O)s1
inactive: [16] 88 % of control | [17] 91 % of control | [18] 95 % of control

CN1CCC2(CC1)SSC1(CCN(C)CC1)S2
inactive: [10] 122 % of control | dose: 100.0 mg/kg/injection, schedule: Q04DX003 (ip), vehicle: saline 91 % of control | [21] 116 % of control | dose: 200.0 mg/kg/injection, schedule: Q04DX003 (ip), vehicle: saline 91 % of control

CN1N=C(N)c2cn(C3OC(COP(=O)(O)O)C(O)C3O)c3ncnc1c23 (stereo not drawn)
inactive: dose: 6.25 mg/kg/injection, schedule: Q01DX009 (ip), vehicle: water 89 % of control and 92 % of control | dose: 12.5 mg/kg/injection, schedule: Q01DX009 (ip), vehicle: water 90 % of control | [22] 93 % of control | [23] 96 % of control | [24] 88 % of control

Cc1c(N=O)c(=O)n(-c2ccccc2)n1C
inactive: [13] 100 % of control | [14] 100 % of control | [26] 106 % of control

CCN(CC)CCOC(=O)CC1CCCCC1
inactive: [2] 99 % of control | [10] 96 % of control | [21] 95 % of control

COc1ccc(I)c([N+](=O)[O-])c1
inactive: [18] 93 % of control | [19] 93 % of control | [20] 87 % of control

O=C(O)CCC(NC(=O)OCc1ccccc1)C(=O)OCc1ccccc1 (stereo not drawn)
inactive: [18] 86 % of control | [19] 86 % of control | [20] 96 % of control
